# Entries after “also recorded” stand apart in the source; their conditions may differ. Like-named read-outs stand apart in the source and are kept apart here.
# Tests used:
# [1] = target: T1, ryanodine receptor (skeletal sarcoplasmic reticulum membrane vesicles) (Oryctolagus cuniculus, UniProt P11716); experiment: biochemical; type: binding
# T1 construct: skeletal sarcoplasmic reticulum membrane vesicles; from tissue; host or cells: skeletal muscle sarcoplasmic reticulum membrane vesicles
# [2] = system: SR Ca^++ release channel/ryanodine receptor (cardiac and skeletal muscle vesicles); type: biochemical
# [3] = target: T2, Sarcoplasmic Reticular Ca^++ -Release Channel (ryanodine receptor) (Oryctolagus cuniculus, UniProt P11716); experiment: biochemical; type: binding; conditions: for relative binding affinity compared with ryanodine (in words): vs ryanodine
# T2 construct: skeletal sarcoplasmic reticulum membrane vesicles; from tissue; host or cells: skeletal muscle sarcoplasmic reticulum membrane vesicles
# [4] = target: SR Ca^2+ release channel (junctional SR vesicles from rabbit skeletal muscle) (Oryctolagus cuniculus, UniProt P11716); experiment: biochemical; type: biochemical
# Procedure: Briefly, junctional SR vesicles from rabbit skeletal muscle were passively loaded with. ^45 Ca^2+ in the presence and absence of the esters. Ca^2+ -efflux was then initiated by diluting the vesicles 100-fold into a low Ca^2+ -concentration. ^45 Ca^2+ remaining in the vesicles was determined after a 3 sec. efflux period by termination and filtration of the vesicles followed by liquid scintillation counting.
# [5] = Table I, displacement of 6.7 nM [3H]ryanodine, mean ± standard deviation of replicates, read-out: IC50
# [6] = Table I, mean ± standard deviation of replicates, read-out: KD
# [7] = second embodiment, read-out: IC50
# [8] = Table II, more highly purified standards, read-out: IC50 (nM) ± S.D.
# T1 sequence (P11716 whole entry): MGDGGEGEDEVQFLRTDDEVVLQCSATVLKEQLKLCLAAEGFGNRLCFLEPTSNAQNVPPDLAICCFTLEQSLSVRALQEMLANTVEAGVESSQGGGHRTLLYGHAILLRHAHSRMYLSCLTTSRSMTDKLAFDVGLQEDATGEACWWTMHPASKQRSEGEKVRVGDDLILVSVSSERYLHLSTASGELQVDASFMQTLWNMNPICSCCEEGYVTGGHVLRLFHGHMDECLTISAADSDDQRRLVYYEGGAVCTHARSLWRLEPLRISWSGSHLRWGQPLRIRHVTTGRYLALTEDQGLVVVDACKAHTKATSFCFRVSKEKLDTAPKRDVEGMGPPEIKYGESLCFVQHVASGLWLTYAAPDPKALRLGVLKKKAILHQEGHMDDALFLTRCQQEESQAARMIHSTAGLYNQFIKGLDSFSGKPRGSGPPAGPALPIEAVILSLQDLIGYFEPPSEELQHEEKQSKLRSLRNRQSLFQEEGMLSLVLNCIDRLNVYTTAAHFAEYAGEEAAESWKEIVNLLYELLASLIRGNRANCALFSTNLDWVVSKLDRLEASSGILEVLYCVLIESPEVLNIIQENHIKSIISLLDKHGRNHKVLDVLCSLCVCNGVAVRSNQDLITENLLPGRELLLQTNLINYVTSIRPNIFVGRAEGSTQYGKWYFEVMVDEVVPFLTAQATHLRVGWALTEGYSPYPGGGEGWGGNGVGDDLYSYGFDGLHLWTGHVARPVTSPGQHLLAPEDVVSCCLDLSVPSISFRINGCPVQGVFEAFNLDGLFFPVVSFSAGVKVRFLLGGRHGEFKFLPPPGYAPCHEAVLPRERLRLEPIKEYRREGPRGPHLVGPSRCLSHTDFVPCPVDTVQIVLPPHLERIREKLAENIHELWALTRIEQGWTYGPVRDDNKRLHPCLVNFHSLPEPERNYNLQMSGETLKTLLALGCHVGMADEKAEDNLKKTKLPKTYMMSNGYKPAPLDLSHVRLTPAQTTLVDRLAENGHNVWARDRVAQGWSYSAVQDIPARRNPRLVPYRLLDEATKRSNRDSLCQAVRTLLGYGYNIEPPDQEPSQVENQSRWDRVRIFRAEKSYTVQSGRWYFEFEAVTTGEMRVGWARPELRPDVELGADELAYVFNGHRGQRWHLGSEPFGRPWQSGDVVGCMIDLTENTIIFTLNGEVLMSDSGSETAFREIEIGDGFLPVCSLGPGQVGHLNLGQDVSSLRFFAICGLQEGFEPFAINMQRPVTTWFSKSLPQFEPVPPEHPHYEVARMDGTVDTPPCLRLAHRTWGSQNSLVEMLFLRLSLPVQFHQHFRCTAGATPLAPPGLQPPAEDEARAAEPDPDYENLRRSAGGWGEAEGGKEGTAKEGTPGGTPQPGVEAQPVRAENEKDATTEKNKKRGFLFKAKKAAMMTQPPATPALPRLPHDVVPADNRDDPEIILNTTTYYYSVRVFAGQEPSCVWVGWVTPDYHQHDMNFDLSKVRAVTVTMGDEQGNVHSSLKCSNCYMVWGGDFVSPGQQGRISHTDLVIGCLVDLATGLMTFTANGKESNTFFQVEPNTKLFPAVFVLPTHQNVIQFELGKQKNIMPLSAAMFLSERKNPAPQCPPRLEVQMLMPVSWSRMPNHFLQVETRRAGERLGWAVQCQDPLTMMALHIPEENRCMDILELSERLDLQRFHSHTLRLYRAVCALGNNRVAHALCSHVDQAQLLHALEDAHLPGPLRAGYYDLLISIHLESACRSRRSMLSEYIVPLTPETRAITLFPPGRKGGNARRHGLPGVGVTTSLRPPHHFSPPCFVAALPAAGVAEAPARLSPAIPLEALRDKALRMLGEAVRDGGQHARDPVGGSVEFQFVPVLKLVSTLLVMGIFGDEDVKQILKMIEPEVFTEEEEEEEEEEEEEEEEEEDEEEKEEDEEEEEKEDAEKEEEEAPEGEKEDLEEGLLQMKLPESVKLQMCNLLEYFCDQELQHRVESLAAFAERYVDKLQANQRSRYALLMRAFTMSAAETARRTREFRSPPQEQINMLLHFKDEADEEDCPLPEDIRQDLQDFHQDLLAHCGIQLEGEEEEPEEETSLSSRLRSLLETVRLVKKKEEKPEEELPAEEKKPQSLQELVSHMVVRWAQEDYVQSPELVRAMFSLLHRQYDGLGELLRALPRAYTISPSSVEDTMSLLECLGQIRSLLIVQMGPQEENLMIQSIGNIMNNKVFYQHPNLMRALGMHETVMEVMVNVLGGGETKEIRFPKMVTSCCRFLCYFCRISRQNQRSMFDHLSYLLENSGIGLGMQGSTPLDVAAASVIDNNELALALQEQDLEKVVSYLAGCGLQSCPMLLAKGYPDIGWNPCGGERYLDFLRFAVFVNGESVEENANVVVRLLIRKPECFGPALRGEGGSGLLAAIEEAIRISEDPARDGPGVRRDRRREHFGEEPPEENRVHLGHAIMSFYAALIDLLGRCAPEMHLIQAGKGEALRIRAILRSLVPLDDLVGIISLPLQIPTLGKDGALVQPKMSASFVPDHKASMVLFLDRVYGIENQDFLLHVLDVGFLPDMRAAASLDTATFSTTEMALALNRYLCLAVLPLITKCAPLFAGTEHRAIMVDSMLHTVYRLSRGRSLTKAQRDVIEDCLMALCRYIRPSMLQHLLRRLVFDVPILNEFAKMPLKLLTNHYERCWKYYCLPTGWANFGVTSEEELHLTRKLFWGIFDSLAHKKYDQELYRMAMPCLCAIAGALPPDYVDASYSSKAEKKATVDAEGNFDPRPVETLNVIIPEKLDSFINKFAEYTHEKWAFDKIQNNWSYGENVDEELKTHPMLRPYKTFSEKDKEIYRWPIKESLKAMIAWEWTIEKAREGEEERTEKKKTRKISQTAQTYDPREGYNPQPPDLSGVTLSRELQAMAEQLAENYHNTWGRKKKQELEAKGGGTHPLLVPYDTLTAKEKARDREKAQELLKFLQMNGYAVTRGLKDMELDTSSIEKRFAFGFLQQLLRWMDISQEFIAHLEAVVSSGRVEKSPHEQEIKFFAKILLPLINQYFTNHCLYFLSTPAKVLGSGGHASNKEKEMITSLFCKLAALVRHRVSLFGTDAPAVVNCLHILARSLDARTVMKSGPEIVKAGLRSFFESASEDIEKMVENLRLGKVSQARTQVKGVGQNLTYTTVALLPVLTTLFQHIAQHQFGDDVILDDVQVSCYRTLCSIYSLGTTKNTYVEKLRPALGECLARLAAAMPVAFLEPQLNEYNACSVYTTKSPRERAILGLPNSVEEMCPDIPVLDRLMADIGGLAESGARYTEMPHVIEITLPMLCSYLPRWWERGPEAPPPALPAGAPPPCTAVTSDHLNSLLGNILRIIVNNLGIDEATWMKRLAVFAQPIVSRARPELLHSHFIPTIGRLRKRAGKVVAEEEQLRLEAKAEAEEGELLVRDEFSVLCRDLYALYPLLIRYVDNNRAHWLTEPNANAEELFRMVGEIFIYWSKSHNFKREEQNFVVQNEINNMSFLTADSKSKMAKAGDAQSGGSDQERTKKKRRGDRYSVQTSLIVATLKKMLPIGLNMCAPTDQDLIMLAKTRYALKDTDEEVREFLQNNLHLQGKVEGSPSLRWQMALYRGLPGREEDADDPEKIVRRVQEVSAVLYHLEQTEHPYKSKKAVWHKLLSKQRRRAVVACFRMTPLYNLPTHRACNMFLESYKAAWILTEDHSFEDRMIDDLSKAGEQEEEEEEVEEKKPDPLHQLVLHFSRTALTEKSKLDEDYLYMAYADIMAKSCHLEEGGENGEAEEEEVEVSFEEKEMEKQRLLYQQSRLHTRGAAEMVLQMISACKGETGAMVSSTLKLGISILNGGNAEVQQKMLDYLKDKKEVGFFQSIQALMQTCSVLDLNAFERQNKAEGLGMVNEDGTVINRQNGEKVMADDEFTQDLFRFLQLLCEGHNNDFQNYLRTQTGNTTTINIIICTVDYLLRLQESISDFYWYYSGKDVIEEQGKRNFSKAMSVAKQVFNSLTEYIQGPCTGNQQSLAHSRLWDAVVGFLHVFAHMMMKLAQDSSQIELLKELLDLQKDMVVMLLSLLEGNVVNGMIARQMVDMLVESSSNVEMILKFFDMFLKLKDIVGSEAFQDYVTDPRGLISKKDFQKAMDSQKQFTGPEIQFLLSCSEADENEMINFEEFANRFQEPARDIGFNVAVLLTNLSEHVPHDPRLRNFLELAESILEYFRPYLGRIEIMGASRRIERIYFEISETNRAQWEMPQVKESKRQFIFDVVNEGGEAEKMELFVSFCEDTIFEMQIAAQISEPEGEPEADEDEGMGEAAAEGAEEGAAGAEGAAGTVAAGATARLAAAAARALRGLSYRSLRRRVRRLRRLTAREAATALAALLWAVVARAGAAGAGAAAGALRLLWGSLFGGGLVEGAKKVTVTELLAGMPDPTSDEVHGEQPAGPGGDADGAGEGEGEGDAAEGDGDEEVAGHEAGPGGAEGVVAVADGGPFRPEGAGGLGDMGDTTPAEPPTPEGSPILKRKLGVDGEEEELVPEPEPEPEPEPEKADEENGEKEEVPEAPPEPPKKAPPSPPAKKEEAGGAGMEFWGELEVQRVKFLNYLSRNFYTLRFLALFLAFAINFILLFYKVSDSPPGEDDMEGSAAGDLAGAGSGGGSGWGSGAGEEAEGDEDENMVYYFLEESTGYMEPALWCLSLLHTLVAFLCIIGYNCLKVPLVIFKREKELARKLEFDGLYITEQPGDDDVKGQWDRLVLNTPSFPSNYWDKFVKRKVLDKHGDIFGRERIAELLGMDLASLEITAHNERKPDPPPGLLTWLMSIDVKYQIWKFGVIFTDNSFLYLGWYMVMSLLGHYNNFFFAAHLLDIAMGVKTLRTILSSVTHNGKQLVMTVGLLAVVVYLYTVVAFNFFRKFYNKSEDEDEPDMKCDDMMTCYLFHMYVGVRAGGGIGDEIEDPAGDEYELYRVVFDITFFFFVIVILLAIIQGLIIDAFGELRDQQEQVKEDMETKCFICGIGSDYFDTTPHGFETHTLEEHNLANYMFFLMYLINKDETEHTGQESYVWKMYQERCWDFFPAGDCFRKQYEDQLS
# Sequence of SR Ca^2+ release channel (junctional SR vesicles from rabbit skeletal muscle) (P11716 whole entry): as above
# T2 sequence (P11716 whole entry): as above
compound,measurement,setting,value
"C=C1CCC2(O)C3(C)CC4(O)OC2(C1O)C1(O)C3(O)C(OC(=O)c2ccc[nH]2)C(O)(C(C)C)C41C (stereo not drawn) [Dehydroryanodine, dehydroryanodine]",IC50,[1],16.1 ± 4.1 nM
same,Kd,[1],5.4 ± 0.1 nM
same,closing of the SR Ca^++ release channel (in words),"[2]; I, NMDS: concentrations as high as 300 μM, ryanodine, dehydroryanodine: >μM",the channel is closed
same,opening of the SR Ca^++ release channel (in words),"[2]; ryanodine, dehydroryanodine: low concentrations (<μM)",opens the SR Ca^++ release channel/ryanodine receptor; also recorded: the Ca^++ release channel is opened
"CC1CCC2(O)C3(C)CC4(O)OC2(C1OC(=O)CNC(=O)OCc1ccccc1)C1(O)C3(O)C(OC(=O)c2ccc[nH]2)C(O)(C(C)C)C41C (stereo not drawn) [I, O10eq-[(N'Carbobenzyloxy)-Glycyl]-Ryanodine]",IC50,[1]; [5],22.3 ± 7.3 nM
same,Kd,[1]; [6],6.6 ± 2 nM
same,relative binding affinity compared with ryanodine (in words),[3],slightly enhanced affinity
same,closing of the SR Ca^++ release channel (in words),[2],neither XVII(NMDS) nor CBZ-glycyl-ryanodine (I) exhibits significant ability to close the channel
same,opening of the SR Ca^++ release channel (in words),[2],"only slightly less active than ryanodine for opening the channel; also recorded: same selective activity of only opening this channel, albeit at higher dose levels"
same,potency and selectivity comparison (in words),[2]; I vs XVIII (NMDS),more potent and more selective than XVIII(NMDS)
"CC1CCC2(O)C3(C)CC4(O)OC2(C1OC(=O)CCNC(=O)OCc1ccccc1)C1(O)C3(O)C(OC(=O)c2ccc[nH]2)C(O)(C(C)C)C41C (stereo not drawn) [IV, O10eq. -Carbobenzyloxy-β-alanyl-ryanodine]",IC50,[1]; [5],12.3 ± 1 nM
same,Kd,[1]; [6],4 ± 0.2 nM
same,IC50,"[1]; restated for adjustment, read-out: IC50 value (Table I value as restated in text)",12.3 nM
same,IC50,"[3]; Table I value multiplied by 6.2/11.9=0.52, read-out: adjusted IC50 value",6.4 nM
same,IC50,[3]; [7],5.9 nM
same,relative binding affinity compared with ryanodine (in words),[3],slightly enhanced affinity
same,opening of the SR Ca^++ release channel (in words),[2],"same selective activity of only opening this channel, albeit at higher dose levels"
"C=C1CCC2(O)C3(C)CC4(O)OC2(C1OC(=O)CCC(=O)NC)C1(O)C3(O)C(OC(=O)c2ccc[nH]2)C(O)(C(C)C)C41C (stereo not drawn) [XVIII, N-Methyl-Dehydroryanodine-Succinamidate]",IC50,[1]; IC50 (nM),49.4 ± 10.6 nM
same,Kd,[1]; [6],19.9 ± 5.8 nM
same,closing of the SR Ca^++ release channel (in words),[2],neither XVII(NMDS) nor CBZ-glycyl-ryanodine (I) exhibits significant ability to close the channel
same,opening of the SR Ca^++ release channel (in words),[2],only slightly less active than ryanodine for opening the channel
"CC1CCC2(O)C3(C)CC4(O)OC2(C1OC(=O)CCNC(=N)N)C1(O)C3(O)C(OC(=O)c2ccc[nH]2)C(O)(C(C)C)C41C (stereo not drawn) [XXI, O10eq -β-Guanidinopropionyl-Ryanodine]",IC50,[3]; [8],1.1 ± 0.1 nM
same,relative binding affinity compared with ryanodine (in words),[3],about six times greater than that of ryanodine
same,relative binding affinity compared with ryanodine (in words),[3]; listed as O10eq -β-guanidinopropyl-ryanodine,high binding affinity
same,opening (activation) of the SR CRC (in words),[4],appears to be purely an activator of the SR CRC
same,closing (deactivation) of the SR CRC (in words),"[4]; higher concentrations, up to 1 mM for V-II, XXI preliminary",entirely lack the ability of ryanodine to close the SR CRC
same,pharmacological profile (in words),[4]; vs biphasic profile of ryanodine,"altered--unidirectional--pharmacological profile, differing from the biphasic profile of ryanodine"
"CC1CCC2(O)C3(OC4(O)C[C@]2(C)C2(O)[C@H](OC(=O)c5ccc[nH]5)C(O)(C(C)C)C4(C)C32O)[C@@H]1OC(=O)CN=C(N)N (stereo partly drawn) [XXIV, O10eq -Guanidinoacetyl-Ryanodine]",IC50,[3]; [8],1.8 ± 0.2 nM
same,IC50,[3]; [7],1.8 nM
"C=C1CCC2(O)C3(C)CC4(O)OC2(C1OC(=O)CCNC(=O)OCc1ccccc1)C1(O)C3(O)C(OC(=O)c2ccc[nH]2)C(O)(C(C)C)C41C (stereo not drawn) [XXV, O10eq -CBZ-β-Alanyl-Dehydroryanodine]",IC50,[3]; [8],4.43 nM
"C=C1CCC2(O)C3(C)CC4(O)OC2(C1OC(=O)CCN)C1(O)C3(O)C(OC(=O)c2ccc[nH]2)C(O)(C(C)C)C41C (stereo not drawn) [XXVI, O10eq -β-Alanyl-Dehydroryanodine]",IC50,[3]; [8],3.36 nM
"CC1CCC2(O)C3(C)CC4(O)OC2(C1OC(=O)CCNC(=O)CCNC(=O)c1cc(I)c(N=[N+]=[N-])cc1O)C1(O)C3(O)C(OC(=O)c2ccc[nH]2)C(O)(C(C)C)C41C (stereo not drawn) [XXXI, O10eq N-(4-azido-5-^125 Iodosalicyloyl)-β-alanyl-β-alanyl ryanodine]",IC50,"[1]; non-radioactive compound, read-out: IC50",25.1 ± 2.5 nM
same,deactivation of the CRC in calcium flux experiments (in words),"[4]; concentrations greater than 1 mM, non-radioactive compound",does not deactivate the CRC
